In ChEMBL document CHEMBL2375331, “Daphnane-type diterpenes with inhibitory activities against human cancer cell lines from Daphne genkwa” (Bioorg Med Chem Lett, 2013):

Tests used:
Assay type in all cases: functional, cell-based
K562 = assay: Cytotoxicity against human K562 cells after 48 hrs by MTT assay; details: K562, 48 h
U-937 = assay: Cytotoxicity against human U937 cells after 48 hrs by MTT assay; details: U-937, 48 h
HL-60 = assay: Cytotoxicity against human HL60 cells after 48 hrs by MTT assay; details: HL-60, 48 h
[1] = Cytotoxicity against human A375-S2 cells after 48 hrs by MTT assay; details: A375-S2, 48 h
HT-1080 = assay: Cytotoxicity against human HT1080 cells after 48 hrs by MTT assay; details: HT-1080, 48 h
HCT-116 = assay: Cytotoxicity against human HCT116 cells after 48 hrs by MTT assay; details: HCT-116, 48 h
A549 = assay: Cytotoxicity against human A549 cells after 48 hrs by MTT assay; details: A549, 48 h
HepG2 = assay: Cytotoxicity against human HepG2 cells after 48 hrs by MTT assay; details: HepG2, 48 h
HeLa = assay: Cytotoxicity against human HeLa cells after 48 hrs by MTT assay
MCF7 = assay: Cytotoxicity against human MCF7 cells after 48 hrs by MTT assay; details: MCF7, 48 h

Row | SMILES | IC50 (K562) [µM] | IC50 (U-937) [µM] | IC50 (HL-60) [µM] | IC50 [1] [µM] | IC50 (HT-1080) [µM] | IC50 (HCT-116) [µM] | IC50 (A549) [µM] | IC50 (HepG2) [µM] | IC50 (HeLa) [µM] | IC50 (MCF7) [µM]
1 | C=C(C)[C@]12C[C@@H](C)[C@@]34O[C@@]5(CCCCCCC[C@@H](C)[C@H]6[C@H](C)C(=O)[C@@](O)([C@H](O)[C@@]7(CO)O[C@H]7[C@H]3[C@H]1O5)[C@@H]64)O2 [WIKSTROELIDE E] | 24 | 19.5 | 22.1 | 29 | 15.1 | 29.9 | 19.3 | 11.4 | 17.1 | > 50
2 | C=C(C)[C@@]12O[C@@]3(/C=C/C=C/CCCCC)O[C@@H]1[C@@H]1[C@@H]4O[C@]4(CO)[C@@H](O)[C@]4(O)C(=O)C(C)=C[C@H]4[C@@]1(O3)[C@H](C)[C@H]2OC(C)=O [YUANHUADINE] | 22.2 | 14.7 | 30.1 | 15.8 | < 0.1 | 32.6 | > 50 | 26.3 | 17.1 | 4.11
3 | C=C(C)[C@@]12OC3(c4ccccc4)O[C@@H]1[C@@H]1[C@H](O)[C@](O)(CO)[C@@H](O)[C@]4(O)C(=O)C(C)=C[C@H]4[C@@]1(O3)[C@H](C)[C@H]2OC(=O)c1ccccc1 [YUANHUAOATE B] | 21.3 | 14.4 | 27 | 23.3 | 0.59 | 26.5 | 15.9 | 25.1 | 21 | 0.37
4 | C=C(C)[C@@]1(O)[C@H](OC(=O)/C=C/C=C/CCCCC)[C@@H]2[C@@H]3O[C@]3(CO)[C@@H](O)[C@]3(O)C(=O)C(C)=C[C@H]3[C@@]2(O)[C@H](C)[C@H]1OC(=O)c1ccccc1 [YUANHUAOATE E] | 29 | 11.6 | 18.5 | 26.5 | 18.4 | 16.4 | 13.3 | 11.1 | 16.7 | > 50
